In PubChem BioAssay AID1963433 (Molecular Pharmacology Branch, DTP, NCI, 2024):
“And” between values parts separate entries of the source, which are not always exact repeats. Equal entries are not always repeated. Each block holds one molecule with its values, some of them ahead of it.

Tested on: 772245-204-R-J1-PDC complex spheroid growth
Assay: Anticancer human tumor 772245-204-R-J1-PDC patient-derived rhabdomyosarcoma cell line growth inhibition [Asc]
Details: for viability, T/C: stronger effect = lower value
Summary of the method: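 Tumor cells were grown as multicellular spheroids with stromal HUVEC and mesenchymal stem cells and treated singly or in combination. Concentrations fell in half-log steps from the clinical Cmax, or from 10 microM where none was known.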

[1] = curve of first compound, second compound 0.1 µM
[2] = curve of first compound, second compound 0.316 µM
[3] = curve of first compound, second compound 1 µM
[4] = curve of first compound, second compound 3.16 µM
[5] = curve of first compound, second compound 10 µM
[6] = second compound 0.1 µM, first compound 0.00316 µM
[7] = second compound 0.1 µM, first compound 0.01 µM
[8] = second compound 0.1 µM, first compound 0.0316 µM
[9] = second compound 0.1 µM, first compound 0.1 µM
[10] = second compound 0.316 µM, first compound 0.00316 µM
[11] = second compound 0.316 µM, first compound 0.01 µM
[12] = second compound 0.316 µM, first compound 0.0316 µM
[13] = second compound 0.316 µM, first compound 0.1 µM
[14] = second compound 1 µM, first compound 0.00316 µM
[15] = second compound 1 µM, first compound 0.01 µM
[16] = second compound 1 µM, first compound 0.0316 µM
[17] = second compound 1 µM, first compound 0.1 µM
[18] = second compound 3.16 µM, first compound 0.00316 µM
[19] = second compound 3.16 µM, first compound 0.01 µM
[20] = second compound 3.16 µM, first compound 0.0316 µM
[21] = second compound 3.16 µM, first compound 0.1 µM
[22] = second compound 10 µM, first compound 0.00316 µM
[23] = second compound 10 µM, first compound 0.01 µM
[24] = second compound 10 µM, first compound 0.0316 µM
[25] = second compound 10 µM, first compound 0.1 µM
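Also: compound exposure lasted seven days.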
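For viability, T/C in this document: 100% = DMSO vehicle control viability.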

Structure (SMILES): O=C(c1ccc(F)c(F)c1Nc1ccc(I)cc1F)N1CC(O)([C@@H]2CCCCN2)C1 + Cc1c(S(C)(=O)=O)c(-c2cc(F)cc(N3CCN(c4ccc(NS(=O)(=O)c5ccc(NC(CCN6CCC(C(=O)OCCCP(=O)(O)O)CC6)CSc6ccccc6)c(S(=O)(=O)C(F)(F)F)c5)cc4)CC3)c2)c(-c2ccc(Cl)cc2)n1C(C)C
IC50 [1]: 673 nM
IC50 [2]: 364 nM
IC50 [3]: 350 nM
IC50 [4]: 224 nM
IC50 [5]: 342 nM
viability, T/C [6]: 85.4%
viability, T/C [7]: 85.7%
viability, T/C [8]: 85%
viability, T/C [9]: 72.4%
viability, T/C (second compound 0.1 µM, first compound 0.316 µM): 80.5%
viability, T/C (second compound 0.1 µM, first compound 1 µM): 34.2%
viability, T/C [10]: 76.3%
viability, T/C [11]: 76.7%
viability, T/C [12]: 64.4%
viability, T/C [13]: 67.5%
viability, T/C (second compound 0.316 µM, first compound 0.316 µM): 55.9%
viability, T/C (second compound 0.316 µM, first compound 1 µM): 19.9%
viability, T/C [14]: 61.1%
viability, T/C [15]: 66%
viability, T/C [16]: 66.4%
viability, T/C [17]: 69%
viability, T/C (second compound 1 µM, first compound 0.316 µM): 50.8%
viability, T/C (second compound 1 µM, first compound 1 µM): 13.4%
viability, T/C [18]: 57.1%
viability, T/C [19]: 60.7%
viability, T/C [20]: 56.6%
viability, T/C [21]: 59.7%
viability, T/C (second compound 3.16 µM, first compound 0.316 µM): 45.9%
viability, T/C (second compound 3.16 µM, first compound 1 µM): 8.31%
viability, T/C [22]: 40.2%
viability, T/C [23]: 44.9%
viability, T/C [24]: 57.1%
viability, T/C [25]: 78.8%
viability, T/C (second compound 10 µM, first compound 0.316 µM): 52.2%
viability, T/C (second compound 10 µM, first compound 1 µM): 4.51%

Structure (SMILES): C=CC(=O)N1CCN(c2nc(=O)n(-c3c(C)ccnc3C(C)C)c3nc(-c4c(O)cccc4F)c(F)cc23)C(C)C1 (stereo unspecified) + CCN1C(C(=O)NC23CCC(C(=O)O)(CC2)CC3)C(c2cccc(Cl)c2F)C2(C(=O)Nc3cc(Cl)ccc32)C12CCCCC2
IC50 (curve of first compound, second compound 0.03 µM): > 10000 nM
IC50 (curve of first compound, second compound 0.0949 µM): > 10000 nM
IC50 (curve of first compound, second compound 0.3 µM): > 10000 nM
IC50 (curve of first compound, second compound 0.949 µM): > 10000 nM
IC50 (curve of first compound, second compound 3 µM): > 10000 nM
viability, T/C (second compound 0.03 µM, first compound 0.0316 µM): 105%
viability, T/C (second compound 0.03 µM, first compound 0.1 µM): 102%
viability, T/C (second compound 0.03 µM, first compound 0.316 µM): 94.9%
viability, T/C (second compound 0.03 µM, first compound 1 µM): 113%
viability, T/C (second compound 0.03 µM, first compound 3.16 µM): 110%
viability, T/C (second compound 0.03 µM, first compound 10 µM): 86.4%
viability, T/C (second compound 0.0949 µM, first compound 0.0316 µM): 112%
viability, T/C (second compound 0.0949 µM, first compound 0.1 µM): 104%
viability, T/C (second compound 0.0949 µM, first compound 0.316 µM): 103%
viability, T/C (second compound 0.0949 µM, first compound 1 µM): 102%
viability, T/C (second compound 0.0949 µM, first compound 3.16 µM): 106%
viability, T/C (second compound 0.0949 µM, first compound 10 µM): 103%
viability, T/C (second compound 0.3 µM, first compound 0.0316 µM): 104%
viability, T/C (second compound 0.3 µM, first compound 0.1 µM): 111%
viability, T/C (second compound 0.3 µM, first compound 0.316 µM): 113%
viability, T/C (second compound 0.3 µM, first compound 1 µM): 113%
viability, T/C (second compound 0.3 µM, first compound 3.16 µM): 113%
viability, T/C (second compound 0.3 µM, first compound 10 µM): 93.8%
viability, T/C (second compound 0.949 µM, first compound 0.0316 µM): 111%
viability, T/C (second compound 0.949 µM, first compound 0.1 µM): 94.8%
viability, T/C (second compound 0.949 µM, first compound 0.316 µM): 99.5%
viability, T/C (second compound 0.949 µM, first compound 1 µM): 105%
viability, T/C (second compound 0.949 µM, first compound 3.16 µM): 104%
viability, T/C (second compound 0.949 µM, first compound 10 µM): 79.3%
viability, T/C (second compound 3 µM, first compound 0.0316 µM): 81.9%
viability, T/C (second compound 3 µM, first compound 0.1 µM): 85.7%
viability, T/C (second compound 3 µM, first compound 0.316 µM): 74%
viability, T/C (second compound 3 µM, first compound 1 µM): 77%
viability, T/C (second compound 3 µM, first compound 3.16 µM): 75.2%
viability, T/C (second compound 3 µM, first compound 10 µM): 60.8%

Structure (SMILES): Cc1c(S(C)(=O)=O)c(-c2cc(F)cc(N3CCN(c4ccc(NS(=O)(=O)c5ccc(NC(CCN6CCC(C(=O)OCCCP(=O)(O)O)CC6)CSc6ccccc6)c(S(=O)(=O)C(F)(F)F)c5)cc4)CC3)c2)c(-c2ccc(Cl)cc2)n1C(C)C (stereo unspecified)
viability, T/C (compound 0.1 µM): 82.6% [middle of 14 runs]
viability, T/C (compound 0.316 µM): 67.3% [middle of 14 runs]
viability, T/C (compound 1 µM): 53.8% [middle of 14 runs]
viability, T/C (compound 10 µM): 45.4% [middle of 14 runs]

Further lines, with some results ahead:

IC50 [1]: > 100 nM
IC50 [2]: 3.84 nM
IC50 [3]: 1.23 nM
IC50 [4]: < 0.316 nM
IC50 [5]: < 0.316 nM
Structure (SMILES): Cn1ncnc1[C@H]1c2n[nH]c(=O)c3cc(F)cc(c23)N[C@@H]1c1ccc(F)cc1 + Cc1c(S(C)(=O)=O)c(-c2cc(F)cc(N3CCN(c4ccc(NS(=O)(=O)c5ccc(NC(CCN6CCC(C(=O)OCCCP(=O)(O)O)CC6)CSc6ccccc6)c(S(=O)(=O)C(F)(F)F)c5)cc4)CC3)c2)c(-c2ccc(Cl)cc2)n1C(C)C
viability, T/C (second compound 0.1 µM, first compound 0.000316 µM): 73.2%
viability, T/C (second compound 0.1 µM, first compound 0.001 µM): 77.1%
viability, T/C [6]: 70.5%
viability, T/C [7]: 63.3%
viability, T/C [8]: 58.9%
viability, T/C [9]: 55%
viability, T/C (second compound 0.316 µM, first compound 0.000316 µM): 61.4%
viability, T/C (second compound 0.316 µM, first compound 0.001 µM): 58.8%
viability, T/C [10]: 53.3%
viability, T/C [11]: 37%
viability, T/C [12]: 29.2%
viability, T/C [13]: 23.6%
viability, T/C (second compound 1 µM, first compound 0.000316 µM): 47.1%
viability, T/C (second compound 1 µM, first compound 0.001 µM): 58.7%
viability, T/C [14]: 37%
viability, T/C [15]: 15.5%
viability, T/C [16]: 25.8%
viability, T/C [17]: 15.2%
viability, T/C (second compound 3.16 µM, first compound 0.000316 µM): 34.2%
viability, T/C (second compound 3.16 µM, first compound 0.001 µM): 44.3%
viability, T/C [18]: 33.3%
viability, T/C [19]: 19.7%
viability, T/C [20]: 12.5%
viability, T/C [21]: 10.6%
viability, T/C (second compound 10 µM, first compound 0.000316 µM): 40.9%
viability, T/C (second compound 10 µM, first compound 0.001 µM): 34.6%
viability, T/C [22]: 27.7%
viability, T/C [23]: 13.2%
viability, T/C [24]: 11.1%
viability, T/C [25]: 12%

IC50 (curve of compound): > 10000 nM
Structure (SMILES): O=C(c1cc(Cc2n[nH]c(=O)c3ccccc23)ccc1F)N1CCN(C(=O)C2CC2)CC1
viability, T/C (compound 0.0316 µM): 84.8% and 122% and 103%
viability, T/C (compound 0.1 µM): 109% and 93.1% and 107%
viability, T/C (compound 0.316 µM): 92.4% and 70.8% and 81.9%
viability, T/C (compound 1 µM): 79.6% and 91.7% and 83.5%
viability, T/C (compound 3.16 µM): 80.8% and 88.8% and 89.9%
viability, T/C (compound 10 µM): 59.2% and 60% and 83.6%
